Laboratory results published in ChEMBL document CHEMBL3526135, “Induction of xenobiotic receptors, transporters, and drug metabolizing enzymes by oxycodone” (Drug Metab Dispos, 2013).

Columns and labels:
[1] = target: T1, Nuclear receptor subfamily 1 group I member 3 (Homo sapiens, UniProt Q14994); experiment: Transactivation of human CAR1 transfected in human HepG2 cells assessed as CYP2B6 expression at 1 to 30 uM after 24 hrs by luciferase reporter gene assay; assay type: ADME, cell-based; settings: hepg2, 24 h
T1 sequence (Q14994 whole entry): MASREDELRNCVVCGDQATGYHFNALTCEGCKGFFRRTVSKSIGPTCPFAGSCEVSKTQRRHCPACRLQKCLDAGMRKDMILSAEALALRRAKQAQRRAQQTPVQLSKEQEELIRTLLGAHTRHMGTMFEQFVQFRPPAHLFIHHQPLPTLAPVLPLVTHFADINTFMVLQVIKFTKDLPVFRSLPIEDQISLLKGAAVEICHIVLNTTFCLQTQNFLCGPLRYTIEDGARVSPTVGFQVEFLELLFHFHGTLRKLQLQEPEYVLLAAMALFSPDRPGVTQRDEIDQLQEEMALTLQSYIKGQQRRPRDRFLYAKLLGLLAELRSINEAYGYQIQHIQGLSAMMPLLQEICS

[2] = target: T2, Aryl hydrocarbon receptor (Homo sapiens, UniProt P35869); experiment: Transactivation of human AhR at 0.1 to 30 uM after 24 to 48 hrs by cell-based luciferase reporter gene assay
T2 sequence (P35869 whole entry): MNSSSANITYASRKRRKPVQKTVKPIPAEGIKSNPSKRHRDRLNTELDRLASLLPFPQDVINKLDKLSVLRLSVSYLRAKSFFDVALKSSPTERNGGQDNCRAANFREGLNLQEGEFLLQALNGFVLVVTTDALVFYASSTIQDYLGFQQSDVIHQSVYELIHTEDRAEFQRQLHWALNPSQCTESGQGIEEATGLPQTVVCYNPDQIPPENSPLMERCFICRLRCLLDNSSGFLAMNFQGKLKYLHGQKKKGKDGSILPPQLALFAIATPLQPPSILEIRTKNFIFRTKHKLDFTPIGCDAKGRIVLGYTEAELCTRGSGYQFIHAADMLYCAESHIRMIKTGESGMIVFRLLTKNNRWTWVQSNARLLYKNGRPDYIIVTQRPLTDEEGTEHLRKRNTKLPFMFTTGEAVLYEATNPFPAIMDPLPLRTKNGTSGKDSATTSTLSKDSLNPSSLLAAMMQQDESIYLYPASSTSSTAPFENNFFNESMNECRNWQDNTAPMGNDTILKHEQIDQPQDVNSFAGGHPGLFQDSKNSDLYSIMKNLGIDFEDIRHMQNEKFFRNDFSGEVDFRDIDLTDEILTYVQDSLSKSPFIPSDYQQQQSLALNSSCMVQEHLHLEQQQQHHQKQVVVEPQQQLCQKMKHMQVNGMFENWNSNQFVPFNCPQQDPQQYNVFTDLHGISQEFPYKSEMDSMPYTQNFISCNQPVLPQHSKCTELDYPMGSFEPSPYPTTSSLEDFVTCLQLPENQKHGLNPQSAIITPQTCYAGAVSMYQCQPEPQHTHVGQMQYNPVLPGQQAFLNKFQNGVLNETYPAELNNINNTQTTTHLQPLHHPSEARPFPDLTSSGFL

[3] = target: T3, Nuclear receptor subfamily 1 group I member 3 (Mus musculus, UniProt O35627); experiment: Transactivation of mouse CAR1 transfected in human HepG2 cells assessed as CYP2B6 expression at 1 to 30 uM after 24 hrs by luciferase reporter gene assay; assay type: ADME, cell-based; settings: hepg2, 24 h
T3 sequence (O35627 whole entry): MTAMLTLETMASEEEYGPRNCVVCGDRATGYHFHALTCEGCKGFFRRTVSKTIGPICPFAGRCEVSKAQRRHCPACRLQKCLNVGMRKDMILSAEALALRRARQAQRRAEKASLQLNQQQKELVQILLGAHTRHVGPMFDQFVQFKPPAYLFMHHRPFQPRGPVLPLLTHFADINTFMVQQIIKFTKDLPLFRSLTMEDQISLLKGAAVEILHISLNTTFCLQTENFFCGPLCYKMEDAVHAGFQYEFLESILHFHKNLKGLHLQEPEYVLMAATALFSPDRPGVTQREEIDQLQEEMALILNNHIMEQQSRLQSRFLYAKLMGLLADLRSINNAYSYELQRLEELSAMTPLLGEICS

[4] = Transactivation of human CAR1 Ala retention mutant transfected in human HepG2 cells assessed as CYP2B6 expression at 1 to 30 uM after 24 hrs by luciferase reporter gene assay; assay type: ADME, cell-based; settings: hepg2, 24 h
[5] = target: T4, Nuclear receptor subfamily 1 group I member 2 (Rattus norvegicus, UniProt Q9R1A7); experiment: Transactivation of rat PXR at 0.1 to 30 uM after 24 to 48 hrs by cell-based luciferase reporter gene assay; assay type: ADME
T4 sequence (Q9R1A7 whole entry): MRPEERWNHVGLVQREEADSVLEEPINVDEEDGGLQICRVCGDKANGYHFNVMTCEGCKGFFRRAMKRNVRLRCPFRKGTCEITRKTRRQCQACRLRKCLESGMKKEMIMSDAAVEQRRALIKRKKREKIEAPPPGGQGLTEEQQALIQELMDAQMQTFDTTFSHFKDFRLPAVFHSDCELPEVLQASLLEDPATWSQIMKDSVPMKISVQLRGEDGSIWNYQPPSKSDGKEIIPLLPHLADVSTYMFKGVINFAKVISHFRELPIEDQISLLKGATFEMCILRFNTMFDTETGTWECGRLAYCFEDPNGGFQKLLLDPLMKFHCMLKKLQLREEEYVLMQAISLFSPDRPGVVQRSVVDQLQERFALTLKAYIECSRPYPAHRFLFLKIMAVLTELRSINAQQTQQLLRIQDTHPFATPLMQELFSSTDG

[6] = target: T1, Nuclear receptor subfamily 1 group I member 3; experiment: Transactivation of human CAR1 transfected in human primary hepatocytes assessed as nuclear translocation at 30 uM by confocal laser scanning microscopy; assay type: cell-based, Hepatocyte
[7] = target: T1, Nuclear receptor subfamily 1 group I member 3; experiment: Transactivation of human CAR1 transfected in human primary hepatocytes assessed as nuclear translocation at 1 mM by confocal laser scanning microscopy; assay type: cell-based, Hepatocyte; settings: 1000 µM

Structure (SMILES) | Activity [1] | Activity [2] | Activity [3] | Activity [4] | Activity [5] | Activity [6] | Activity [7]
COc1ccc2c3c1O[C@H]1C(=O)CC[C@@]4(O)[C@@H](C2)NCC[C@]314 | Active | Not Active | Not Active | Not Active | Not Active |  | 
COc1ccc2c3c1O[C@H]1C(=O)CC[C@@]4(O)[C@@H](C2)N(C)CC[C@]314 [OXYCODONE] | Active | Not Active | Not Active | Not Active | Not Active | Not Active | 
CN1CC[C@]23c4c5ccc(O)c4O[C@H]2C(=O)CC[C@@]3(O)[C@H]1C5 [OXYMORPHONE] | Active | Not Active | Not Active | Not Active | Not Active |  | 
CCC1(c2ccccc2)C(=O)NC(=O)NC1=O [PHENOBARBITAL] |  |  |  |  |  |  | Active
